# Test results taken from PubChem BioAssay (NCI).
#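 Five concentrations, 48 hours, 96-well plates. TGI: concentration producing complete growth inhibition.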
# Assays:
# Assay in all cases: growth of human tumour cells (NCI), 48 h
# U251 CNS = test system: U251 CNS
# DU-145 prostate = test system: DU-145 prostate
# M14 melanoma = test system: M14 melanoma
# K-562 leukemia = test system: K-562 leukemia
# A549 NSCLC = test system: A549 NSCLC
# MDA-N = test system: MDA-N
# NCI-H23 lung = test system: NCI-H23 lung
# CCRF-CEM leukemia = test system: CCRF-CEM leukemia
# HCT-116 colon = test system: HCT-116 colon
# SF-268 CNS = test system: SF-268 CNS
# SK-MEL-2 melanoma = test system: SK-MEL-2 melanoma
# NCI-H522 lung = test system: NCI-H522 lung
# SK-MEL-28 melanoma = test system: SK-MEL-28 melanoma
# SF-295 CNS = test system: SF-295 CNS
# SK-MEL-5 melanoma = test system: SK-MEL-5 melanoma
# EKVX NSCLC = test system: EKVX NSCLC
# LOX IMVI melanoma = test system: LOX IMVI melanoma
# CAKI-1 renal = test system: CAKI-1 renal
# RXF 393 renal = test system: RXF 393 renal
# 786-0 renal = test system: 786-0 renal
# OVCAR-8 ovarian = test system: OVCAR-8 ovarian
# HL-60(TB) leukemia = test system: HL-60(TB) leukemia
# IGROV1 ovarian = test system: IGROV1 ovarian
# HCT-15 colon = test system: HCT-15 colon
# MDA-MB-231 breast = test system: MDA-MB-231 breast
# RPMI-8226 leukemia = test system: RPMI-8226 leukemia
# SR leukemia = test system: SR leukemia
# OVCAR-5 ovarian = test system: OVCAR-5 ovarian
# NCI-H226 lung = test system: NCI-H226 lung
# COLO 205 colon = test system: COLO 205 colon
# HS 578T breast = test system: HS 578T breast
# SF-539 CNS = test system: SF-539 CNS
# OVCAR-4 ovarian = test system: OVCAR-4 ovarian
# SNB-19 CNS = test system: SNB-19 CNS
# UO-31 renal = test system: UO-31 renal
# SK-OV-3 ovarian = test system: SK-OV-3 ovarian
# HCC-2998 colon = test system: HCC-2998 colon
# MCF7 breast = test system: MCF7 breast
# ACHN renal = test system: ACHN renal
# MALME-3M melanoma = test system: MALME-3M melanoma
# PC-3 prostate = test system: PC-3 prostate
# UACC-62 melanoma = test system: UACC-62 melanoma
# NCI/ADR-RES ovarian = test system: NCI/ADR-RES ovarian
# UACC-257 melanoma = test system: UACC-257 melanoma
# MOLT-4 leukemia = test system: MOLT-4 leukemia
# KM12 colon = test system: KM12 colon
# SN12C renal = test system: SN12C renal
# NCI-H460 lung = test system: NCI-H460 lung
# HOP-62 NSCLC = test system: HOP-62 NSCLC
# TK-10 renal = test system: TK-10 renal
# T-47D breast = test system: T-47D breast
# SNB-75 CNS = test system: SNB-75 CNS
# HT29 colon = test system: HT29 colon
# SW-620 colon = test system: SW-620 colon
# BT-549 breast = test system: BT-549 breast
# MDA-MB-435 = test system: MDA-MB-435
# A498 renal = test system: A498 renal
# OVCAR-3 ovarian = test system: OVCAR-3 ovarian
# HOP-92 NSCLC = test system: HOP-92 NSCLC
compound,measurement,setting,value
CC(=O)NC1c2ccccc2C(C)(C)C12CCC1(CC2)OCCO1 (stereo not drawn),TGI,U251 CNS,> 100 µM
same,TGI,DU-145 prostate,> 100 µM
same,TGI,M14 melanoma,> 100 µM
same,TGI,K-562 leukemia,> 100 µM
same,TGI,A549 NSCLC,> 100 µM
same,TGI,MDA-N,> 100 µM
same,TGI,NCI-H23 lung,> 100 µM
same,TGI,CCRF-CEM leukemia,> 100 µM
same,TGI,HCT-116 colon,> 100 µM
same,TGI,SF-268 CNS,> 100 µM
same,TGI,SK-MEL-2 melanoma,> 100 µM
same,TGI,NCI-H522 lung,> 100 µM
same,TGI,SK-MEL-28 melanoma,> 100 µM
same,TGI,SF-295 CNS,> 100 µM
same,TGI,SK-MEL-5 melanoma,> 100 µM
same,TGI,EKVX NSCLC,> 100 µM
same,TGI,LOX IMVI melanoma,> 100 µM
same,TGI,CAKI-1 renal,> 100 µM
same,TGI,RXF 393 renal,> 100 µM
same,TGI,786-0 renal,> 100 µM
same,TGI,OVCAR-8 ovarian,> 100 µM
same,TGI,HL-60(TB) leukemia,> 100 µM
same,TGI,IGROV1 ovarian,> 100 µM
same,TGI,HCT-15 colon,> 100 µM
same,TGI,MDA-MB-231 breast,> 100 µM
same,TGI,RPMI-8226 leukemia,> 100 µM
same,TGI,SR leukemia,> 100 µM
same,TGI,OVCAR-5 ovarian,> 100 µM
same,TGI,NCI-H226 lung,> 100 µM
same,TGI,COLO 205 colon,> 100 µM
same,TGI,HS 578T breast,> 100 µM
same,TGI,SF-539 CNS,> 100 µM
same,TGI,OVCAR-4 ovarian,> 100 µM
same,TGI,SNB-19 CNS,> 100 µM
same,TGI,UO-31 renal,> 100 µM
same,TGI,SK-OV-3 ovarian,> 10 µM
same,TGI,HCC-2998 colon,> 100 µM
same,TGI,MCF7 breast,> 100 µM
same,TGI,ACHN renal,> 100 µM
same,TGI,MALME-3M melanoma,> 100 µM
same,TGI,PC-3 prostate,> 100 µM
same,TGI,UACC-62 melanoma,> 100 µM
same,TGI,NCI/ADR-RES ovarian,> 100 µM
same,TGI,UACC-257 melanoma,> 100 µM
same,TGI,MOLT-4 leukemia,> 100 µM
same,TGI,KM12 colon,> 100 µM
same,TGI,SN12C renal,> 10 µM
same,TGI,NCI-H460 lung,> 10 µM
same,TGI,HOP-62 NSCLC,> 100 µM
same,TGI,TK-10 renal,> 100 µM
same,TGI,T-47D breast,> 100 µM
same,TGI,SNB-75 CNS,> 100 µM
same,TGI,HT29 colon,> 100 µM
same,TGI,SW-620 colon,> 100 µM
same,TGI,BT-549 breast,> 100 µM
COc1cccc(/C=N/n2c(C)n[nH]c2=O)c1,TGI,U251 CNS,> 100 µM
same,TGI,M14 melanoma,> 100 µM
same,TGI,K-562 leukemia,> 100 µM
same,TGI,A549 NSCLC,> 100 µM
same,TGI,MDA-N,> 100 µM
same,TGI,NCI-H23 lung,> 100 µM
same,TGI,CCRF-CEM leukemia,> 100 µM
same,TGI,HCT-116 colon,> 100 µM
same,TGI,SF-268 CNS,> 100 µM
same,TGI,SK-MEL-2 melanoma,> 100 µM
same,TGI,SK-MEL-28 melanoma,> 100 µM
same,TGI,SF-295 CNS,> 100 µM
same,TGI,EKVX NSCLC,> 100 µM
same,TGI,CAKI-1 renal,> 100 µM
same,TGI,RXF 393 renal,> 100 µM
same,TGI,786-0 renal,> 100 µM
same,TGI,OVCAR-8 ovarian,> 100 µM
same,TGI,HCT-15 colon,> 100 µM
same,TGI,MDA-MB-231 breast,> 100 µM
same,TGI,RPMI-8226 leukemia,> 100 µM
same,TGI,OVCAR-5 ovarian,> 100 µM
same,TGI,NCI-H226 lung,> 100 µM
same,TGI,COLO 205 colon,> 100 µM
same,TGI,HS 578T breast,43.8 µM
same,TGI,SF-539 CNS,> 100 µM
same,TGI,OVCAR-4 ovarian,> 100 µM
same,TGI,SNB-19 CNS,> 100 µM
same,TGI,UO-31 renal,> 100 µM
same,TGI,SK-OV-3 ovarian,> 100 µM
same,TGI,HCC-2998 colon,> 100 µM
same,TGI,MCF7 breast,> 100 µM
same,TGI,ACHN renal,> 100 µM
same,TGI,MALME-3M melanoma,> 100 µM
same,TGI,PC-3 prostate,> 100 µM
same,TGI,UACC-62 melanoma,> 100 µM
same,TGI,NCI/ADR-RES ovarian,> 100 µM
same,TGI,UACC-257 melanoma,> 100 µM
same,TGI,MOLT-4 leukemia,> 100 µM
same,TGI,MDA-MB-435,> 100 µM
same,TGI,KM12 colon,> 100 µM
same,TGI,A498 renal,> 100 µM
same,TGI,SN12C renal,> 100 µM
same,TGI,OVCAR-3 ovarian,> 100 µM
same,TGI,NCI-H460 lung,> 100 µM
same,TGI,HOP-62 NSCLC,> 100 µM
same,TGI,T-47D breast,> 100 µM
same,TGI,SNB-75 CNS,> 100 µM
same,TGI,HT29 colon,> 100 µM
same,TGI,SW-620 colon,> 100 µM
same,TGI,BT-549 breast,> 100 µM
Nc1ccc(S2(c3ccc(N)cc3)C=C(c3ccccc3)C(c3ccccc3)=C2)cc1,TGI,U251 CNS,> 100 µM
same,TGI,DU-145 prostate,> 90.3 µM
same,TGI,M14 melanoma,> 100 µM
same,TGI,K-562 leukemia,> 100 µM
same,TGI,A549 NSCLC,> 100 µM
same,TGI,MDA-N,> 100 µM
same,TGI,NCI-H23 lung,> 100 µM
same,TGI,CCRF-CEM leukemia,> 100 µM
same,TGI,HCT-116 colon,> 100 µM
same,TGI,SF-268 CNS,> 100 µM
same,TGI,SK-MEL-2 melanoma,> 88.4 µM
same,TGI,SK-MEL-28 melanoma,> 100 µM
same,TGI,SF-295 CNS,> 100 µM
same,TGI,SK-MEL-5 melanoma,> 100 µM
same,TGI,EKVX NSCLC,> 100 µM
same,TGI,LOX IMVI melanoma,> 100 µM
same,TGI,CAKI-1 renal,> 22.6 µM
same,TGI,RXF 393 renal,> 100 µM
same,TGI,786-0 renal,> 72.1 µM
same,TGI,OVCAR-8 ovarian,98.4 µM
same,TGI,HL-60(TB) leukemia,> 100 µM
same,TGI,IGROV1 ovarian,> 100 µM
same,TGI,HCT-15 colon,> 100 µM
same,TGI,MDA-MB-231 breast,> 100 µM
same,TGI,RPMI-8226 leukemia,> 100 µM
same,TGI,SR leukemia,> 100 µM
same,TGI,OVCAR-5 ovarian,> 100 µM
same,TGI,NCI-H226 lung,> 63.3 µM
same,TGI,COLO 205 colon,> 100 µM
same,TGI,HS 578T breast,> 100 µM
same,TGI,SF-539 CNS,> 100 µM
same,TGI,OVCAR-4 ovarian,> 25.2 µM
same,TGI,SNB-19 CNS,> 100 µM
same,TGI,UO-31 renal,> 90.5 µM
same,TGI,SK-OV-3 ovarian,> 59.7 µM
same,TGI,HCC-2998 colon,> 100 µM
same,TGI,MCF7 breast,> 100 µM
same,TGI,ACHN renal,> 92.5 µM
same,TGI,MALME-3M melanoma,> 100 µM
same,TGI,PC-3 prostate,> 100 µM
same,TGI,UACC-62 melanoma,> 100 µM
same,TGI,NCI/ADR-RES ovarian,> 100 µM
same,TGI,UACC-257 melanoma,> 100 µM
same,TGI,HOP-92 NSCLC,> 100 µM
same,TGI,MOLT-4 leukemia,> 100 µM
same,TGI,MDA-MB-435,> 71.3 µM
same,TGI,KM12 colon,> 100 µM
same,TGI,A498 renal,> 90.3 µM
same,TGI,SN12C renal,> 100 µM
same,TGI,OVCAR-3 ovarian,> 100 µM
same,TGI,NCI-H460 lung,> 100 µM
same,TGI,HOP-62 NSCLC,> 100 µM
same,TGI,TK-10 renal,> 85.5 µM
same,TGI,T-47D breast,> 100 µM
same,TGI,SNB-75 CNS,> 100 µM
same,TGI,HT29 colon,> 100 µM
same,TGI,SW-620 colon,> 100 µM
O=C1C(=Cc2ccccc2O)N=C(c2ccccc2)N1n1c(-c2ccccc2)nc2ccccc2c1=O,TGI,DU-145 prostate,> 100 µM
same,TGI,M14 melanoma,57.1 µM
same,TGI,K-562 leukemia,78.2 µM
same,TGI,A549 NSCLC,> 100 µM
same,TGI,MDA-N,> 100 µM
same,TGI,NCI-H23 lung,89.5 µM
same,TGI,CCRF-CEM leukemia,88.6 µM
same,TGI,HCT-116 colon,89.8 µM
same,TGI,SF-268 CNS,88.3 µM
same,TGI,NCI-H522 lung,67.1 µM
same,TGI,SK-MEL-28 melanoma,> 100 µM
same,TGI,SF-295 CNS,56.8 µM
same,TGI,SK-MEL-5 melanoma,41.7 µM
same,TGI,EKVX NSCLC,> 100 µM
same,TGI,LOX IMVI melanoma,> 100 µM
same,TGI,CAKI-1 renal,84.8 µM
same,TGI,786-0 renal,> 100 µM
same,TGI,OVCAR-8 ovarian,> 100 µM
same,TGI,HL-60(TB) leukemia,31.9 µM
same,TGI,IGROV1 ovarian,> 100 µM
same,TGI,HCT-15 colon,> 100 µM
same,TGI,MDA-MB-231 breast,> 100 µM
same,TGI,RPMI-8226 leukemia,> 100 µM
same,TGI,SR leukemia,> 100 µM
same,TGI,NCI-H226 lung,79 µM
same,TGI,COLO 205 colon,> 100 µM
same,TGI,HS 578T breast,> 100 µM
same,TGI,SF-539 CNS,50 µM
same,TGI,SNB-19 CNS,> 100 µM
same,TGI,UO-31 renal,86.5 µM
same,TGI,SK-OV-3 ovarian,> 100 µM
same,TGI,HCC-2998 colon,89.2 µM
same,TGI,MCF7 breast,64.3 µM
same,TGI,ACHN renal,89.3 µM
same,TGI,MALME-3M melanoma,> 100 µM
same,TGI,PC-3 prostate,> 100 µM
same,TGI,UACC-62 melanoma,> 100 µM
same,TGI,UACC-257 melanoma,69.1 µM
same,TGI,MOLT-4 leukemia,77.7 µM
same,TGI,MDA-MB-435,> 100 µM
same,TGI,KM12 colon,98.4 µM
same,TGI,A498 renal,64.1 µM
same,TGI,SN12C renal,> 100 µM
same,TGI,NCI-H460 lung,> 100 µM
same,TGI,HOP-62 NSCLC,96.8 µM
same,TGI,TK-10 renal,> 100 µM
same,TGI,T-47D breast,93 µM
same,TGI,SNB-75 CNS,87.8 µM
same,TGI,HT29 colon,> 100 µM
same,TGI,SW-620 colon,> 100 µM
same,TGI,BT-549 breast,89.9 µM
